Results reported in ChEMBL document CHEMBL4673233, “Discovery of novel (6S/12aS)-heptachpyridone capable of inhibiting thrombosis in vivo” (Bioorg Med Chem Lett, 2020).
Active and inactive are the calls of the source. The rule behind the calls is not given here.

How the values were obtained:
Rattus norvegicus [1] = experiment: Antithrombotic activity in rat model of thread-induced arterial thrombosis assessed as reduction artery thrombus at 167 umol/kg, po; assay type: functional, organism-based; conditions: dose 167.0 µmol/kg
[2] = Drug metabolism in rat plasma assessed as formation of 6s/12as-bisdimethoxyethylheptachpyridone incubated for 1 hr by HPLC-FT-ICR-MS analysis; assay type: ADME, cell-free
[3] = Toxicity in inferior vena cava ligation-induced venous thrombosis rat model assessed as bleeding time at 1 umol/kg; conditions: in vivo, dose 1 µmol/kg
Rattus norvegicus [4] = experiment: Antithrombotic activity in rat model of inferior vena cava ligation-induced venous thrombosis assessed as reduction in venous thrombus weight at 1 umol/kg, po; assay type: functional, organism-based; conditions: dose 1.0 µmol/kg
[5] = Toxicity in inferior vena cava ligation-induced venous thrombosis rat model assessed as international normalized ratio measure of prothrombin time and exogenous coagulation pathway at 1 umol/kg; conditions: in vivo, dose 1 µmol/kg
[6] = Toxicity in inferior vena cava ligation-induced venous thrombosis rat model assessed as clotting time at 1 umol/kg; conditions: in vivo, dose 1 µmol/kg
Rattus norvegicus [7] = experiment: Antithrombotic activity in rat model of thread-induced arterial thrombosis assessed as reduction artery thrombus at 1 umol/kg, po; assay type: functional, organism-based; conditions: dose 1.0 µmol/kg
[8] = Toxicity in inferior vena cava ligation-induced venous thrombosis rat model assessed as international normalized ratio measure of prothrombin time and exogenous coagulation pathway at 4.87 umol/kg; conditions: in vivo, dose 1 µmol/kg
[9] = Toxicity in inferior vena cava ligation-induced venous thrombosis rat model assessed as bleeding time at 4.87 umol/kg; conditions: in vivo, dose 4.87 µmol/kg
Rattus norvegicus [10] = experiment: Antithrombotic activity in rat model of inferior vena cava ligation-induced venous thrombosis assessed as reduction in venous thrombus weight at 4.87 umol/kg, po; assay type: functional, organism-based; conditions: dose 4.87 µmol/kg
[11] = Toxicity in inferior vena cava ligation-induced venous thrombosis rat model assessed as clotting time at 4.87 umol/kg; conditions: in vivo, dose 4.87 µmol/kg
[12] = Drug metabolism in rat plasma assessed as formation of 6s/12as-heptachpyridone incubated for 1 hr by HPLC-FT-ICR-MS analysis; assay type: ADME, cell-free

CC(=O)Oc1ccccc1C(=O)O
Activity (Rattus norvegicus [1]): Active

COC(C[C@@H]1N[C@H](C(=O)O)Cc2c1[nH]c1ccccc21)OC
Drug metabolism [2]: Metabolite_Detected

O=CC[C@H]1c2[nH]c3ccccc3c2C[C@H]2C(=O)N3[C@@H](Cc4c([nH]c5ccccc45)[C@@H]3CC=O)C(=O)N21
Activity [3]: Non-Toxic | Activity (Rattus norvegicus [4]): Active | Activity [5]: Non-Toxic | Activity [6]: Non-Toxic | Activity (Rattus norvegicus [7]): Active

CC(=O)CC(c1ccccc1)c1c(O)c2ccccc2oc1=O (configuration not stated) [WARFARIN]
Activity [8]: Toxic | Activity [9]: Toxic | Activity (Rattus norvegicus [10]): Active | Activity [11]: Toxic

COC(C[C@H]1c2[nH]c3ccccc3c2C[C@H]2C(=O)N3[C@@H](Cc4c([nH]c5ccccc45)[C@@H]3CC(OC)OC)C(=O)N21)OC
Drug metabolism [12]: Metabolite_Detected
